Measurements reported in article PMC9823097, “Dysregulation of PRMT5 in chronic lymphocytic leukemia promotes progression with high risk of Richter’s transformation” (Nature Communications, 2023).
Where “and” joins values, the source holds several entries; their conditions need not be identical. Equal entries are not always repeated.

Experiments:
HG3 CLL cell line = test: Global symmetric dimethyl arginine (SDMA) western blot, HG3; format: cell-based; conditions: HG3, 72 h treatment
Text: Proteins extracted from whole-cell lysates were resolved by SDS-PAGE and transferred on nitrocellulose membrane as previously described. CpG685 oligonucleotide was obtained from the OSU Cytogenetics Core Lab. Antibodies used for immunoblots included anti-human PRMT5 (Abcam #ab109451), GAPDH (Millipore Sigma #MAB374), SDMA (Cell Signaling Technology #13222), c-Myc (Cell Signaling Technology #5605S), and β-Actin (Cell Signaling Technology #4967S). Cas9-mediated doxycycline-inducible knockout of PRMT5 utilized a targeted sgRNA (guide sequence: […], PAM: GGG).

Mec-1 cells = test: Cell growth curves over 12 days, Mec-1; format: cell-based
Protocol: Live cells/mL were counted on days 3, 6, 10, and 12. […] The split factor was calculated at indicated time points by dividing the counted cells/mL by 3E5. Cell growth was extrapolated over time by multiplying the subsequent cell count by the previous split factor. Cell growth is plotted as fold change relative to DMSO-treated cells.

[1] = system: Eµ-PRMT5/TCL1 Cd19+Cd5+ spleen cells engrafted into immunocompetent C57/BL6J mice; test: Adoptive transfer of Eµ-PRMT5/TCL1 spleen cells into C57/BL6J mice, treatment study; format: in vivo
Protocol: For adoptive transfer, viable Cd19^+Cd5^+ cells (5 × 10^6) from the spleen of an Eµ-PRMT5/TCL1 transgenic mouse with active CLL-like leukemia (>80% circulating in peripheral blood) and palpable splenomegaly were engrafted by tail vein into immunocompetent C57/BL6J female mice. Engrafted mice were randomly assigned to treatment conditions: PRT382 10 mg/kg, EPZ015666 50 mg/kg, or vehicle (0.5% methylcellulose, 0.1% tween) at 1-week post engraftment. All treatments were administered by oral gavage 4 contiguous days per week (Mon-Thurs). Predefined euthanasia criteria for mice in all transgenic colonies and murine transplant models were followed and included lethargy, impaired motility, splenomegaly, enlarged lymph nodes and/or superficial lymphoid tumors greater than 1.6 cm in diameter (or cumulative diameter of 1.6 cm if multiple tumors), decrease in body weight (>20%), ruffled fur, hunched back, failure to nest, and loss of appetite.

[2] = Mec-1, continuous exposure over 12 days

Question: What does the source list for `CON=c1nc[nH]c2c1ccn2[C@@H]1O[C@H]([C@H](O)c2ccc(Cl)c(Cl)c2)[C@@H](O)[C@H]1O.Cl` [PRT382, (2 R,3 S,4 R,5 R)-2-[(R)-(3,4-dichlorophenyl)-hydroxy-methyl]-5-[(4Z)-4-methoxyimino-1H-pyrrolo[2,3-d]pyrimidin-7-yl]tetrahydrofuran-3,4-diol hydrochloride]?
Answer: lowest dose with decrease in global SDMA residues (HG3 CLL cell line): 100 nM; anti-proliferative potency compared to JNJ-64619178, LLY-283, and PF-06855800 (Mec-1 cells; Mec-1): similar-to-reduced; Rep 1 Live Cells [Fold Change] (Mec-1 cells; Mec-1, 1 nM, day 0): 1 Fold Change; Rep 2 Live Cells [Fold Change] (Mec-1 cells; Mec-1, 1 nM, day 0): 1 Fold Change; Rep 3 Live Cells [Fold Change] (Mec-1 cells; Mec-1, 1 nM, day 0): 1 Fold Change; Rep 1 Live Cells [Fold Change] (Mec-1 cells; Mec-1, 1 nM, day 3): 5.48 Fold Change; Rep 2 Live Cells [Fold Change] (Mec-1 cells; Mec-1, 1 nM, day 3): 7.38 Fold Change; Rep 3 Live Cells [Fold Change] (Mec-1 cells; Mec-1, 1 nM, day 3): 6.82 Fold Change; Rep 1 Live Cells [Fold Change] (Mec-1 cells; Mec-1, 1 nM, day 6): 47.7 Fold Change; Rep 2 Live Cells [Fold Change] (Mec-1 cells; Mec-1, 1 nM, day 6): 61 Fold Change; Rep 3 Live Cells [Fold Change] (Mec-1 cells; Mec-1, 1 nM, day 6): 62.4 Fold Change; Rep 1 Live Cells [Fold Change] (Mec-1 cells; Mec-1, 1 nM, day 10): 655 Fold Change; Rep 2 Live Cells [Fold Change] (Mec-1 cells; Mec-1, 1 nM, day 10): 809 Fold Change; Rep 3 Live Cells [Fold Change] (Mec-1 cells; Mec-1, 1 nM, day 10): 898 Fold Change; Rep 1 Live Cells [Fold Change] (Mec-1 cells; Mec-1, 1 nM, day 12): 2650 Fold Change; Rep 2 Live Cells [Fold Change] (Mec-1 cells; Mec-1, 1 nM, day 12): 2940 Fold Change; Rep 3 Live Cells [Fold Change] (Mec-1 cells; Mec-1, 1 nM, day 12): 4480 Fold Change; Rep 1 Live Cells [Fold Change] (Mec-1 cells; Mec-1, 10 nM, day 0): 1 Fold Change; Rep 2 Live Cells [Fold Change] (Mec-1 cells; Mec-1, 10 nM, day 0): 1 Fold Change; Rep 3 Live Cells [Fold Change] (Mec-1 cells; Mec-1, 10 nM, day 0): 1 Fold Change; Rep 1 Live Cells [Fold Change] (Mec-1 cells; Mec-1, 10 nM, day 3): 8.13 Fold Change; Rep 2 Live Cells [Fold Change] (Mec-1 cells; Mec-1, 10 nM, day 3): 8.43 Fold Change; Rep 3 Live Cells [Fold Change] (Mec-1 cells; Mec-1, 10 nM, day 3): 7.78 Fold Change; Rep 1 Live Cells [Fold Change] (Mec-1 cells; Mec-1, 10 nM, day 6): 70.5 Fold Change; Rep 2 Live Cells [Fold Change] (Mec-1 cells; Mec-1, 10 nM, day 6): 65.2 Fold Change; Rep 3 Live Cells [Fold Change] (Mec-1 cells; Mec-1, 10 nM, day 6): 77.4 Fold Change; Rep 1 Live Cells [Fold Change] (Mec-1 cells; Mec-1, 10 nM, day 10): 909 Fold Change; Rep 2 Live Cells [Fold Change] (Mec-1 cells; Mec-1, 10 nM, day 10): 1080 Fold Change; Rep 3 Live Cells [Fold Change] (Mec-1 cells; Mec-1, 10 nM, day 10): 887 Fold Change; Rep 1 Live Cells [Fold Change] (Mec-1 cells; Mec-1, 10 nM, day 12): 3770 Fold Change; Rep 2 Live Cells [Fold Change] (Mec-1 cells; Mec-1, 10 nM, day 12): 3720 Fold Change; Rep 3 Live Cells [Fold Change] (Mec-1 cells; Mec-1, 10 nM, day 12): 6410 Fold Change; Rep 1 Live Cells [Fold Change] (Mec-1 cells; Mec-1, 100 nM, day 0): 1 Fold Change; Rep 2 Live Cells [Fold Change] (Mec-1 cells; Mec-1, 100 nM, day 0): 1 Fold Change; Rep 3 Live Cells [Fold Change] (Mec-1 cells; Mec-1, 100 nM, day 0): 1 Fold Change; Rep 1 Live Cells [Fold Change] (Mec-1 cells; Mec-1, 100 nM, day 3): 6.3 Fold Change; Rep 2 Live Cells [Fold Change] (Mec-1 cells; Mec-1, 100 nM, day 3): 5.17 Fold Change; Rep 3 Live Cells [Fold Change] (Mec-1 cells; Mec-1, 100 nM, day 3): 4.6 Fold Change; Rep 1 Live Cells [Fold Change] (Mec-1 cells; Mec-1, 100 nM, day 6): 14 Fold Change; Rep 2 Live Cells [Fold Change] (Mec-1 cells; Mec-1, 100 nM, day 6): 17.1 Fold Change; Rep 3 Live Cells [Fold Change] (Mec-1 cells; Mec-1, 100 nM, day 6): 13.3 Fold Change; Rep 1 Live Cells [Fold Change] (Mec-1 cells; Mec-1, 100 nM, day 10): 63 Fold Change; Rep 2 Live Cells [Fold Change] (Mec-1 cells; Mec-1, 100 nM, day 10): 155 Fold Change; Rep 3 Live Cells [Fold Change] (Mec-1 cells; Mec-1, 100 nM, day 10): 73.7 Fold Change; Rep 1 Live Cells [Fold Change] (Mec-1 cells; Mec-1, 100 nM, day 12): 100 Fold Change; Rep 2 Live Cells [Fold Change] (Mec-1 cells; Mec-1, 100 nM, day 12): 297 Fold Change; Rep 3 Live Cells [Fold Change] (Mec-1 cells; Mec-1, 100 nM, day 12): 92.2 Fold Change; Rep 1 Live Cells [Fold Change] (Mec-1 cells; Mec-1, 1 µM, day 0): 1 Fold Change; Rep 2 Live Cells [Fold Change] (Mec-1 cells; Mec-1, 1 µM, day 0): 1 Fold Change; Rep 3 Live Cells [Fold Change] (Mec-1 cells; Mec-1, 1 µM, day 0): 1 Fold Change; Rep 1 Live Cells [Fold Change] (Mec-1 cells; Mec-1, 1 µM, day 3): 3.87 Fold Change; Rep 2 Live Cells [Fold Change] (Mec-1 cells; Mec-1, 1 µM, day 3): 4.23 Fold Change; Rep 3 Live Cells [Fold Change] (Mec-1 cells; Mec-1, 1 µM, day 3): 5.4 Fold Change; Rep 1 Live Cells [Fold Change] (Mec-1 cells; Mec-1, 1 µM, day 6): 7.67 Fold Change; Rep 2 Live Cells [Fold Change] (Mec-1 cells; Mec-1, 1 µM, day 6): 5.09 Fold Change; Rep 3 Live Cells [Fold Change] (Mec-1 cells; Mec-1, 1 µM, day 6): 4.33 Fold Change; Rep 1 Live Cells [Fold Change] (Mec-1 cells; Mec-1, 1 µM, day 10): 8.99 Fold Change; Rep 2 Live Cells [Fold Change] (Mec-1 cells; Mec-1, 1 µM, day 10): 4.86 Fold Change; Rep 3 Live Cells [Fold Change] (Mec-1 cells; Mec-1, 1 µM, day 10): 2.73 Fold Change; Rep 1 Live Cells [Fold Change] (Mec-1 cells; Mec-1, 1 µM, day 12): 3.31 Fold Change; Rep 2 Live Cells [Fold Change] (Mec-1 cells; Mec-1, 1 µM, day 12): 4.55 Fold Change; Rep 3 Live Cells [Fold Change] (Mec-1 cells; Mec-1, 1 µM, day 12): 1.12 Fold Change; dose at which growth inhibition begins (Mec-1 cells; [2]): 100 nM; effect on growth potential (cell growth) (Mec-1 cells; [2]): time and dose-dependent growth inhibition; Week 1 CD19+/B220dim ([1]; Figure 7F, per mouse, week 1, in % (unit assumed)): 14.94 and 11.13 and 14.86 and 15.24 and 10.03 and 10.93 and 22.62 and 11.33 and 10.17 and 14.2; Week 2 CD19+/B220dim ([1]; Figure 7F, per mouse, week 2, in % (unit assumed)): 13.43 and 12.86 and 10.14 and 23.82 and 13.56 and 16.79 and 25.72 and 21.61 and 19.95 and 20.17; Week 3 CD19+/B220dim ([1]; Figure 7F, per mouse, week 3, in % (unit assumed)): 26.89 and 23.33 and 20.67 and 34.07 and 24.63 and 26.03 and 34.34 and 21.21 and 26.17 and 22.42; Week 4 CD19+/B220dim ([1]; Figure 7F, per mouse, week 4, in % (unit assumed)): 41.39 and 38.3 and 24.43 and 39.63 and 41.81 and 49.51 and 51.09 and 40.09 and 18.3 and 35.71; Week 5 CD19+/B220dim ([1]; Figure 7F, per mouse, week 5): 59.47 and 50.76 and 31.63 and 42.2 and 57.43 and 71.78 and 71.22 and 54.4 and 38.84 and 43.16; Week 6 CD19+/B220dim ([1]; Figure 7F, per mouse, week 6, in % (unit assumed)): 77.7 and 46.25 and 37.53 and 72.87 and 45.24 and 51.74 and 53.46 and 63.05 and 57.02 and 47.66; Week 7 CD19+/B220dim ([1]; Figure 7F, per mouse, week 7, in % (unit assumed)): 84.05 and 64.76 and 55.81 and 74.55 and 67.6 and 65.33 and 67.88 and 74.71 and 65.7 and 77.54; Week 8 CD19+/B220dim ([1]; Figure 7F, per mouse, week 8): 89.79 and 78.47 and 68.08 and 80.27 and 72.86 and 72.85 and 63.41 and 82.55 and 81.05 and 82.92; Week 9 CD19+/B220dim ([1]; Figure 7F, per mouse, week 9): 91.31 and 75.18 and 73.48 and 85.11 and 81.63 and 77.6 and 71.82 and 88.55 and 87.37 and 84.51; Week 10 CD19+/B220dim ([1]; Figure 7F, per mouse, week 10, in % (unit assumed)): 76.49 and 84.3 and 76.64 and 83.91 and 87.5 and 87.78 and 77.93 and 88.18 and 89.1 and 91.37; Week 11 CD19+/B220dim ([1]; Figure 7F, per mouse, week 11, in % (unit assumed)): 84.23 and 77.24 and 87.2 and 87.38 and 85.21 and 81.05 and 94.62 and 92.7 and 90.88; Week 12 CD19+/B220dim ([1]; Figure 7F, per mouse, week 12): 87.17 and 83.54 and 90.72 and 88.55 and 85.11; Week 13 CD19+/B220dim ([1]; Figure 7F, per mouse, week 13, in % (unit assumed)): 69.75 and 81.14 and 92.04 and 85.97 and 82.89; Endpoint ([1]; Figure 7G, survival endpoint indicator, per mouse): 1; Days since enrollment ([1]; Figure 7G, survival, per mouse): 64 days and 85 days and 92 days and 71 days and 84 days; Spleen weight ([1]; Figure 7H, per mouse): 0.86 g and 1.01 g and 0.37 g and 0.52 g and 0.24 g and 0.7 g and 0.84 g; survival compared to EPZ015666 or vehicle ([1]; PRT382 10 mg/kg): significant extension in survival; hazard ratio, PRT382 vs EPZ015666 (Mantel–Cox) ([1]; PRT382 10 mg/kg vs EPZ015666 50 mg/kg, survival): 0.65; PRMT5 target modulation, immunoblot of splenic B cells ([1]; PRT382 10 mg/kg, EPZ015666 50 mg/kg): confirmed PRMT5 target modulation; Median survival post-enrollment ([1]; PRT382 10 mg/kg, EPZ015666 50 mg/kg, oral gavage 4 contiguous days per week): 77 days; hazard ratio, PRT382 vs vehicle (Mantel–Cox) ([1]; PRT382 10 mg/kg, survival): 0.21; spleen weight and volume compared to EPZ015666 or vehicle ([1]; at ERC): significantly reduced weight and volume; leukemic expansion across non-lymphoid tissues (histopathology, liver) ([1]; compared with vehicle or EPZ015666-treated mice): decrease in leukemic expansion; Spleen volume ([1]; individual mice, Supplemental Figure 6F): 645.24 mm3 and 1183.96 mm3 and 457.289 mm3 and 271.152 mm3 and 253.789 mm3 and 859.967 mm3 and 562.493 mm3; rate of peripheral disease (CLL-like cells in peripheral blood) ([1]; weeks 2-7 post engraftment, compared to EPZ015666 or vehicle): reduced the rate of peripheral disease
